± gives the expanded uncertainty stated by the source.
Experiments:
[1] = activity coefficient (dimensionless); of the first substance listed, at infinite dilution; xn = mol fraction of the nth substance listed; details: Liquid, x1 = 0
[2] = Liquid, Closed cell (Static) method

activity coefficient ([1]; 250.06 K, Chromatography)	activity coefficient ([1]; 270.12 K, Chromatography)	activity coefficient ([1]; 289.97 K, Chromatography)	activity coefficient ([1]; 309.98 K, Chromatography)	activity coefficient ([1]; 329.97 K, Chromatography)	Compound	also measured
1.57 ± 0.06	1.64 ± 0.07	1.67 ± 0.07	1.69 ± 0.07	1.66 ± 0.07	CC(F)F [1,1-difluoroethane] + C1CCOCC1	
					C=CCC [1-butene] + C1CCOCC1	activity coefficient ([1]; 250.06 K, Gas Stripping Method): 1.39 ± 0.01; activity coefficient ([1]; 270.12 K, Gas Stripping Method): 1.39 ± 0.01; activity coefficient ([1]; 289.97 K, Gas Stripping Method): 1.38 ± 0.01; activity coefficient ([1]; 309.98 K, Gas Stripping Method): 1.38 ± 0.01; activity coefficient ([1]; 329.97 K, Gas Stripping Method): 1.38 ± 0.01
2.14 ± 0.1	2.04 ± 0.09	1.94 ± 0.09	1.88 ± 0.08	1.82 ± 0.08	CC(C)C [2-methylpropane] + C1CCOCC1	
1.39 ± 0.05	1.39 ± 0.05	1.38 ± 0.05	1.38 ± 0.05	1.37 ± 0.05	C=C(C)C [2-methylpropene] + C1CCOCC1	
1.43 ± 0.05	1.41 ± 0.05	1.4 ± 0.05	1.4 ± 0.05	1.4 ± 0.05	C/C=C/C [(E)-2-butene] + C1CCOCC1	
			1.31 ± 0.05		C/C=C\C [(Z)-2-butene] + C1CCOCC1	activity coefficient ([1]; 250 K, Chromatography): 1.36 ± 0.05; activity coefficient ([1]; 270.07 K, Chromatography): 1.33 ± 0.05; activity coefficient ([1]; 289.98 K, Chromatography): 1.32 ± 0.05; activity coefficient ([1]; 330 K, Chromatography): 1.32 ± 0.05
2.04 ± 0.09	1.94 ± 0.09	1.85 ± 0.08	1.78 ± 0.08	1.72 ± 0.07	CCCC [butane] + C1CCOCC1	
			0.94 ± 0.03		CCCl [chloroethane] + C1CCOCC1	activity coefficient ([1]; 250 K, Chromatography): 0.9 ± 0.03; activity coefficient ([1]; 270.07 K, Chromatography): 0.89 ± 0.03; activity coefficient ([1]; 289.98 K, Chromatography): 0.89 ± 0.03; activity coefficient ([1]; 330 K, Chromatography): 0.98 ± 0.03
			1.26 ± 0.04		COC [dimethyl ether] + C1CCOCC1	activity coefficient ([1]; 250 K, Chromatography): 1.29 ± 0.04; activity coefficient ([1]; 270.07 K, Chromatography): 1.26 ± 0.04; activity coefficient ([1]; 289.98 K, Chromatography): 1.26 ± 0.04; activity coefficient ([1]; 330 K, Chromatography): 1.26 ± 0.04
			1.67 ± 0.07		CCCCCC [hexane] + C1CCOCC1	activity coefficient ([1]; 290 K, Chromatography): 1.76 ± 0.07; activity coefficient ([1]; 299.89 K, Chromatography): 1.71 ± 0.07; activity coefficient ([1]; 319.99 K, Chromatography): 1.65 ± 0.07; activity coefficient ([1]; 330.02 K, Chromatography): 1.61 ± 0.06
2.08 ± 0.09	1.98 ± 0.09	1.9 ± 0.08	1.84 ± 0.08	1.79 ± 0.08	CCC [propane] + C1CCOCC1	
1.42 ± 0.05	1.42 ± 0.05	1.43 ± 0.05	1.44 ± 0.05	1.44 ± 0.05	C=CC [propene] + C1CCOCC1	
					C1CCOCC1 [tetrahydropyran]	vapor or sublimation pressure ([2]; 257.96 K): 0.98 ± 0.01 kPa; vapor or sublimation pressure ([2]; 260.07 K): 1.13 ± 0.01 kPa; vapor or sublimation pressure ([2]; 270.28 K): 2.16 ± 0.02 kPa; vapor or sublimation pressure ([2]; 279.82 K): 3.7 ± 0.02 kPa; vapor or sublimation pressure ([2]; 289.94 K): 6.28 ± 0.02 kPa; vapor or sublimation pressure ([2]; 290 K): 6.3 ± 0.02 kPa; vapor or sublimation pressure ([2]; 300.01 K): 10.23 ± 0.04 kPa; vapor or sublimation pressure ([2]; 332.98 K): 40 ± 0.1 kPa; vapor or sublimation pressure ([2]; 341.09 K): 53.33 ± 0.12 kPa; vapor or sublimation pressure ([2]; 347.72 K): 66.66 ± 0.15 kPa; vapor or sublimation pressure ([2]; 353.38 K): 79.99 ± 0.18 kPa; vapor or sublimation pressure ([2]; 358.37 K): 93.33 ± 0.21 kPa; vapor or sublimation pressure ([2]; 360.22 K): 98.66 ± 0.22 kPa

Compound	activity coefficient ([1]; 250.06 K, Chromatography)	activity coefficient ([1]; 270.12 K, Chromatography)	activity coefficient ([1]; 289.97 K, Chromatography)	activity coefficient ([1]; 309.98 K, Chromatography)	activity coefficient ([1]; 329.97 K, Chromatography)	also measured
C=CC=C [1,3-butadiene] + C1CCOCC1	0.95 ± 0.03	0.97 ± 0.03	1.01 ± 0.03	1.05 ± 0.03	1.09 ± 0.03	

Reference: the NIST ThermoML archive (doi:10.1021/je700270d)
